Data set [1] relates to human non-small cell lung cancer cells A549. The data set can be described thus: MTT in-vitro anti-tumor activity test, A549.
Experimental: (§1) Experimental Materials Human non-small cell lung cancer cells A549, mouse breast cancer cells 4T-1 and mouse melanoma B16-BL6 were purchased from American Type Current Collection (ATCC, Rockville, MD, USA). An RPMI-1640 culture solution containing 10% of fetal calf serum and 2% of glutamine was inoculated with the A549, 4T-1 and B16-BL6 cells, and the cells were incubated at 37° C. in a 5% CO2 incubator.
(§2) The compounds were dissolved in DMSO under a sterile condition, and the obtained solutions were diluted to required concentrations by using an RPMI 1640 culture solution, wherein the final concentration of the DMSO was less than 0.5%.
(§3) A549, 4T-1 and B16-BL6 were used as adherent cells, adherent tumor cells in a logarithmic phase were selected, digested with pancreatin, and then prepared into a cell suspension of 5×10^4/ml with a culture medium containing 10% of calf serum, a 96-well culture plate was inoculated with the cell suspension, wherein each well contained 100 μl of the cell suspension, and incubation was carried out for 24 h at 37° C. and 5% CO2. Replacing was carried out with a new culture solution containing the samples to be detected of different concentrations in the experimental groups, replacing was carried out with a culture solution containing a same volume of solvent in the control group, three parallel wells were set in each group, and incubation was carried out for 48 hours at 37° C. and 5% CO2. The supernate was discarded, careful washing was carried out with PBS twice, 100 μl of a freshly prepared culture medium containing 0.5 mg/ml of MTT was added into each well, and incubation was continued to be carried out at 37° C. for 4 h. The supernatant was carefully discarded, 150 μl of DMSO was added, uniform mixing was carried out for 10 min by using a micro oscillator, and the optical density value was measured at 492 nm by using a microplate reader.
(§4) Tumor cell growth inhibition ratio (%)=[A492 (negative control)−A492 (dosing group)]/A492 (negative control)×100%
(§5) The median inhibitory concentration (IC50) of the sample is calculated.
Data set [2] addresses SelH (Homo sapiens, UniProt Q8IZQ5, U44C). The data set can be described thus: Surface plasmon resonance (SPR) detection of affinity between compounds and SelH. It is filed as binding. Conditions: for binding activity to the SelH (in words): ranking within the table's compounds. The text has this: A Cys-deficient Escherichia coli expression system was adopted, which is an effective method to prepare selenoprotein found in recent years. Itsbasic principle is as follows: the characteristic that Cys transfer RNA (tRNACys) can bind to Sec was utilized, and a culture medium which is lack of cysteine (Cys) and rich in Selenium cysteine (Sec) was used for culturing a strain, so that Sec was successfully incorporated into newly expressed protein. According to existing literature reports, a human SelH gene sequence was obtained. Selenocysteine of the SelH is in the middle of the sequence and was terminated here during prokaryotic expression, so that the selenocysteine was mutated from a triple codon TGA of the selenocysteine into TGC, which was synthesized by the Sangon Bioengineering (Shanghai) Co., Ltd. In addition, the adopted SPP system was a single protein production system, and a principle of the SPP system was to induce MazF enzyme (mRNA interfering enzyme for cutting RNA on an ACA nucleotide sequence) to cause growth arrest of thalli. The enzyme can specifically recognize and cut the ACA sequence and prevent synthesis of other background proteins in bacteria. Therefore, when mRNA of the desired target protein was encoded, if the mRNA can be designed into a form lacking an ACA base triplet according to an amino acid encoding rule and was induced at 15° C. by using a pCold vector in cells expressing MazF, the mRNA was not enzymatically hydrolyzed, only a protein derived from the mRNA was generated, and there was little synthesis of other cell proteins.
A pColdI-selH plasmid was transformed into BL21 (DE3) Cys-deficient Escherichia coli, so as to obtain a defective expression bacterium pColdI-selH. Sec was added during culture, making it become selenium-containing protein. The target protein was purified by using Ni^2+ column chelating chromatography, and impure protein was eluted by using an imidazole eluent of different concentrations to finally obtain the target protein. Soluble SelH protein was finally obtained, and SDS-PAGE (sodium dodecyl sulfate polyacrylamide gel electrophoresis) analysis was carried out.
A surface plasmon resonance (SPR) method was adopted to detect the interaction condition of a small molecule and a protein, so that the screening of drugs targeting SelH was carried out.
Purified SelH was diluted into a 50 μg/mL protein solution by using 10 mM sodium acetate with a pH value of 5.5, the purified SelH was fixed onto a CM5 chip by an amino coupling method by using Biacore 8K (GE Healthcard, Sweden), and an RU value was recorded.
An isopentenyl or isovaleryl substituted coumarin compound, or a triterpenoid compound with an isopentenyl-like structure (the compound specifically includes aurapten, protopanaxadiol, iso-imperatorin, decursin, osthol, notoginsenoside R1 and shionon) was dissolved in 100% DMSO to be prepared into solutions containing 5% DMSO of different concentrations (0, 31.25, 62.5, 125, 250 and 500 μM) by using a 1.05×PBS-P^+ buffer solution (GE Healthcare, obtained by diluting 10×PBS-P^+).
A single-cycle kinetics method was adopted, the 1.05×PBS-P^+ buffer solution containing 5% DMSO was used as a Running Buffer, different compounds of different concentrations flowed through the SelH fixed onto the chip, wherein the binding time was 120 s, and the change condition of the RU value was recorded. An equilibrium dissociation constant (KD) was calculated by using software in Biacore 8K so as to evaluate the binding affinity between the protein and the compounds. The SPR detection result of the affinity between compounds and SelH in Embodiment 2 of the present disclosure is as shown in FIG. 1A-G, and the result statistics is as shown in Table 1.
(1) Screening of small molecule drugs by taking SelH as a target A surface plasmon resonance (SPR) method was adopted to detect the interaction condition of a small molecule and a protein, so that the screening of drugs targeting SelH was carried out. […]
In general terms: In SPR one partner is held on a chip, and binding of the other changes the refractive index at the surface.

For data set [3], the system named is mouse melanoma B16-BL6 cells. The data set can be described thus: cells. In kind it is cell-based. The source says:
MTT reduction method is used.

Data set [4] concerns mouse breast cancer 4T1 cells. Description: MTT in-vitro anti-tumor activity test, 4T1. Particulars: read-out: IC50 cytotoxic effect on 4T1.
Experimental: as §1, §2, §3, §4, §5
The test system of data set [5] is mouse breast cancer 4T1 cells.
Experimental: as §1, §2, §3, §4, §5
Data set [6] deals with human non-small cell lung cancer cells A549.
Experimental: as §1, §2, §3, §4, §5
Where [7] appears, read: SPR Biacore 8K, single-cycle kinetics, Table 3, read-out: KD binding of macrolides and cyclic peptides to SelH.
Setting [8] is: SPR Biacore 8K, single-cycle kinetics, Table 2, read-out: Dissociation constant KD of compounds and SelH.
Where [9] appears, read: Mus musculus, B16-BL6, 48 h, read-out: IC50 cytotoxic effect on B16-BL6.
[10] abbreviates: Homo sapiens, A549, 48 h, read-out: IC50 cytotoxic effect on A549.
[11] abbreviates: Mus musculus, B16-BL6, read-out: IC50 cytotoxic effect on B16-BL6, MTT, 48 hours, Table 1.
The mark [12] stands for this setting: SPR Biacore 8K, single-cycle kinetics, Table 1, read-out: Dissociation constant KD of compounds and SelH.
Where [13] appears, read: read-out: IC50 cytotoxic effect on B16-BL6, MTT, 48 hours, Table 1.
The mark [14] stands for this setting: Homo sapiens, A549, 48 h, read-out: A549 IC50 cytotoxicity.
[15] abbreviates: read-out: IC50 cytotoxic effect on A549, MTT, 48 hours, Table 1.

Where two headings read alike, the source gives them in different places.

By Kd is commonly meant the free concentration of one partner at which half of the binding sites on the other are occupied at equilibrium, for simple one-to-one binding. What is called IC50 is the midpoint of a concentration-inhibition curve.

As for `CO[C@@H]1[C@@H](O[C@@H]2O[C@H](C)[C@@H](O[C@H]3C[C@@](C)(O)[C@@H](O)[C@H](C)O3)[C@H](N(C)C)[C@H]2O)[C@@H](CC=O)C[C@@H](C)[C@@H](O[C@H]2CC[C@H](N(C)C)[C@@H](C)O2)/C=C/C=C/C[C@@H](C)OC(=O)C[C@H]1O` [Spiramycin, spiramycin], the “A549 IC50 cytotoxicity” value in data set [1] (MTT, 48 hours, Table 3) came to 18.33 µg/mL. Also, the Kd in data set [2] (setting [7]) came out at 4.38 µM.
Take `COc1c(O)cc2oc3cc(O)c(CC=C(C)C)c(O)c3c(=O)c2c1CC=C(C)C` [α-mangostin]: the IC50 in data set [3] (read-out: IC50 cytotoxic effect on B16-BL6, MTT, 48 hours, Table 2) amounted to 40.2 µM. The Kd in data set [2] (setting [8]) is 398 µM.
On to `CC(C)=CC[C@@H](O)C1=CC(=O)c2c(O)ccc(O)c2C1=O` [Shikonin, shikonin], for which the IC50 in data set [3] (setting [9]) is 13 µM. Further, in data set [2], binding was characterised by a dissociation constant (Kd) of 5.42 µM.
Molecule `COc1cc(O)c(CC=C(C)C)c2c1C(=O)CC(c1ccc(O)cc1)O2` (stereo not drawn) [Isoxanthohunol, isoxanthohunol] returned an IC50 in data set [3] of 29 µM. Further, in data set [2] (setting [8]), the Kd stood at 2.43 µM.
`CC(C)=CC(=O)O[C@H]1Cc2cc3ccc(=O)oc3cc2OC1(C)C` [Decursin, decursin]: the IC50 in data set [1] (setting [10]) is 60 µM; in data set [3] (setting [11]), 67.8 µM; in data set [4] (Mus musculus, 4T1, 48 h), 38.2 µM. In data set [2] (setting [12]), the Kd worked out at 0.00205 µM.
Turning to `CC(C)=CCOc1c2ccoc2cc2oc(=O)ccc12` [Iso-imperatorin, iso-imperatorin], the IC50 stood at 72.5 µM in data set [1] (setting [10]); 75.2 µM in data set [3] (setting [11]); 48.9 µM in data set [4] (Mus musculus, 4T1, 48 h). In addition, the Kd in data set [2] (setting [12]) stood at 7.53e-05 µM. For the same molecule, the “binding activity to the SelH (in words)” value in data set [2] is listed as “strongest”.
Regarding `CC(C)=CCC/C(C)=C/COc1ccc2ccc(=O)oc2c1` [Aurapten, aurapten], the results for the IC50 in data set [5], in data set [6] and in data set [3] were 37.7 µM, 51.9 µM and 61.9 µM, respectively. Besides, the Kd in data set [2] (setting [12]) came out at 1.53e-05 µM.
Consider `CC(=O)O[C@H](CC=C(C)C)C1=CC(=O)c2c(O)ccc(O)c2C1=O` [Acetyl Shikonin, acetyl shikonin], for which, in data set [3] (setting [9]), the IC50 worked out at 4.44 µM. Besides, in data set [2], the dissociation constant Kd was 0.000464 µM and the “binding activity to the SelH (in words)” value is listed as “strongest”.
Consider `CC(C)=CCC[C@](C)(O[C@@H]1O[C@H](CO)[C@@H](O)[C@H](O)[C@H]1O)[C@H]1CC[C@]2(C)[C@@H]1[C@H](O)C[C@@H]1[C@@]3(C)CC[C@H](O)C(C)(C)[C@@H]3[C@@H](O[C@@H]3O[C@H](CO)[C@@H](O)[C@H](O)[C@H]3O[C@@H]3OC[C@@H](O)[C@H](O)[C@H]3O)C[C@]12C` [Notoginsenoside R1, notoginsenoside R1], for which the IC50 in data set [5] worked out at 100 µM; in data set [6], 126 µM; in data set [3] (setting [13]) it was 111 µM. Moreover, the Kd in data set [2] (setting [12]) is 563 µM. Besides, the “binding activity to the SelH (in words)” value in data set [2] is reported as “weakest”.
Consider `CC[C@H]1OC(=O)[C@H](C)[C@@H](O[C@H]2C[C@@](C)(OC)[C@@H](O)[C@H](C)O2)[C@H](C)[C@@H](O[C@@H]2O[C@H](C)C[C@H](N(C)C)[C@H]2O)[C@](C)(O)C[C@@H](C)CN(C)[C@H](C)[C@@H](O)[C@]1(C)O` [Azithromycin, azithromycin], for which the IC50 in data set [1] (setting [14]) was determined as 72.4 µg/mL. Also, in data set [2] (setting [7]), the Kd is 537 µM. In addition, the “binding activity to the SelH (in words)” value in data set [2] is listed as “weakest”.
As to `CC[C@H]1OC(=O)[C@H](C)[C@@H](O[C@H]2C[C@@](C)(OC)[C@@H](O)[C@H](C)O2)[C@H](C)[C@@H](O[C@@H]2O[C@H](C)C[C@H](N(C)C)[C@H]2O)[C@](C)(O)C[C@@H](C)C(=O)[C@H](C)[C@@H](O)[C@]1(C)O` [Erythromycin, erythromycin], the IC50 in data set [1] (setting [14]) is 230 µg/mL. Further, the Kd in data set [2] (setting [7]) is 10.4 µM.
The like results for `C=C(NC(=O)C(=C)NC(=O)c1csc(C2=N[C@@H]3c4csc(n4)[C@H]4NC(=O)c5csc(n5)[C@H]([C@](C)(O)[C@@H](C)O)NC(=O)[C@H]5CSC(=N5)/C(=C/C)NC(=O)[C@H]([C@@H](C)O)NC(=O)c5csc(n5)[C@]3(CC2)NC(=O)[C@H](C)NC(=O)C(=C)NC(=O)[C@H](C)NC(=O)[C@H]([C@@H](C)CC)N[C@@H]2C=Cc3c([C@H](C)O)cc(nc3[C@H]2O)C(=O)O[C@@H]4C)n1)C(N)=O` [Thiostrepton, thiostrepton] were, in that order, 9.66 µg/mL and 19.9 µM.
On to `CC(C)=CCCC(C)(O)[C@H]1CC[C@]2(C)[C@@H]1[C@H](O)C[C@@H]1[C@@]3(C)CC[C@H](O)C(C)(C)[C@@H]3CC[C@]12C` (stereo in doubt) [Protopanaxadiol, protopanoxadiol], for which the IC50 came to 54.4 µM in data set [1] (setting [15]); 58 µM in data set [3] (setting [13]); 30.9 µM in data set [4] (MTT, 48 hours). Further, the Kd in data set [2] (setting [12]) amounted to 6.71e-05 µM. Also, the “binding activity to the SelH (in words)” value in data set [2] is “strongest”.
On to `CC(C)=CCc1c(-c2ccc(O)cc2O)oc2c3c(cc(O)c2c1=O)OC(C)(C)C=C3` [Morusin, morusin], for which the IC50 in data set [3] (Mus musculus, B16-BL6, read-out: IC50 cytotoxic effect on B16-BL6, MTT, 48 hours, Table 2) is 37.9 µM. The Kd in data set [2] (setting [8]) is 4030 µM. Moreover, the “binding activity to the SelH (in words)” value in data set [2] is recorded as “weakest”.
For `CO[C@@H]1[C@@H](O[C@@H]2O[C@H](C)[C@@H](O[C@H]3C[C@@](C)(O)[C@@H](OC(=O)CC(C)C)[C@H](C)O3)[C@H](N(C)C)[C@H]2O)[C@@H](CC=O)C[C@@H](C)C(=O)/C=C/[C@@H]2O[C@H]2C[C@@H](C)OC(=O)C[C@H]1OC(C)=O` [Carbomycin, carbomycin], the “A549 IC50 cytotoxicity” value in data set [6] stood at 11.79 µg/mL. In addition, in data set [2] (setting [7]), the Kd was 4.4 µM.
Take `CC(C)=CCC[C@]1(C)CC[C@]2(C)[C@H]3CC[C@@]4(C)[C@@H](CCC(=O)[C@@H]4C)[C@]3(C)CC[C@@]2(C)C1` [Shionon, shionon]: the IC50 is 92.7 µM in data set [1] (setting [15]); 93.9 µM in data set [3] (setting [13]); 82.4 µM in data set [4] (MTT, 48 hours). Moreover, in data set [2] (setting [12]), the Kd was 0.00676 µM.
The matching figures for `COc1ccc2ccc(=O)oc2c1CC=C(C)C` [Osthol, osthol]: 81.2 µM, 100 µM, 67.4 µM and 0.0851 µM.

For the origin of these results see patent publication US20240118263A1, “TARGET FOR SCREENING ANTI-TUMOR DRUG, USE THEREOF AND SCREENING METHOD THEREFOR” (SHENYANG FUYANG PHARMACEUTICAL TECHNOLOGY CO., LTD., priority 2019, published 2024).
